Laboratory results from US7855228B2, “Antibiotics targeting MreB” (The Board of Trustees of the Leland Stamford Junior …, priority 2005, dated 2010).
≈ marks a conversion by molar mass, not a printed value. Where two headings read alike, the source gives them in different places. *1 amine or outer side, *2 acyl side, *3 side chain or, on linkers, in order; H or OH if unused. Where a SMILES comes first, the peptide text is derived from it. Bridges are numbered along the chain shown (N, C = ends). [ ]: non-standard residue; d: D form. Trp(2-yl) = O=C([C@H](Cc1c([*:3])[nH]c2ccccc12)N[*:1])[*:2]; Leu(4R-OH,5-OH) = C[C@](O)(CO)C[C@H](N)C(=O)O; cisHyp = O=C(O)[C@@H]1C[C@H](O)CN1

Legend:
E. coli MG1655 [1] = assay: Microscopic observation of cell shape; assay type: cell-based; details: for Effect on E. coli cell morphology (in words): 3×MIC or 300 μg/ml, 16 hrs
Experimental: Microscopic observation. E. coli K-12 strain MG1655 (F^− λ^−) was grown in Lennox broth containing 1% Polypepton, 0.5% yeast extract, 0.5% NaCl, and 0.1% glucose (pH 7.2). Cells spread on a slide glass were treated with methanol for 5 min and covered with poly-L-lysine. The fixed cells were observed by the differential interference contrast system through an Axioskop 2 microscope (Carl Zeiss Co., Ltd., Oberkochen, Germany). To observe the anucleate cells, cells were stained with a 4′,6-diamidino-2-phenylindole (DAPI) solution (5 μg/ml in saline) and then observed by the fluorescence phase-contrast combined method.
The effect of each compound on E. coli cell morphology was next examined.

B. subtilis 168 = assay: Determination of minimum inhibitory concentration (MIC); assay type: cell-based, Bacillus subtilis
Experimental: (§1) Determination of minimum inhibitory concentration (MIC). MICs were also determined on Mueller Hinton agar plates (0.2% beef extract, 1.75% acid digest of casein, 0.15% soluble starch, 1.5% agar, pH 7.3).
(§2) Determination of MIC Minimal inhibitory concentrations (MICs) were determined using a standard 2-fold serial dilution format on L agar plates. Ten microliters of stationary culture diluted in 0.85% NaCl to 10^6 cells/ml were spotted on per plate. […] MICs were also determined on Mueller Hinton agar plates (0.2% beef extract, 1.75% acid digest of casein, 0.15% soluble starch, 1.5% agar, pH 7.3).

E. coli MG1655 [2] = assay: as above; assay type: cell-based; details: for MIC: Escherichia coli
Experimental: as §1, §2

[3] = tested on: E. coli K-12 strain SH3210; assay: Anucleate cell blue assay; assay type: cell-based
Experimental: Anucleate cell blue assay. The anucleate cell blue assay was carried out as reported previously. Briefly, E. coli K-12 strain SH3210 (ΔtrpE5 his λ pXX747) was grown in a P medium containing 1% Polypepton and 0.5% NaCl (pH 7). Paper disks (φ 8 mm) each soaked with 20 μl of a sample solution were placed on P medium agar plates (1.5% agar) containing 10^4 cells/ml of SH3210 and 40 μg/ml of 5-bromo-4-chloro-3-indolyl β-D-galactoside. The plates were incubated at 42° C. for 24 h, and the development of a blue color and the growth inhibitory zone around the paper disks were evaluated.
Since 1 had originally been found through screening by an anucleate cell blue assay, the effect of each compound was first examined by this assay.

S. typhimurium NBRC13245 = assay: Determination of minimum inhibitory concentration (MIC); assay type: cell-based, Salmonella typhimurium; details: for MIC: Salmonella enterica, read-out: MIC S. typhimurium
Experimental: as §1, §2

P. putida NBRC14164 = assay: as above; assay type: cell-based, Pseudomonas putida; details: for MIC: Pseudomonas putida
Experimental: as §1, §2

[4] = tested on: S. aureus subsp. aureus NBRC15035; assay: as above; assay type: cell-based, Staphylococcus aureus; details: for MIC: Staphylococcus aureus
Experimental: as §1, §2

Caulobacter = Caulobacter morphology (DIC images); assay type: cell-based, Caulobacter crescentus; details: drugs that affect eukaryotic actin
From the text: Consistent with previous observations in E. coli (Iwai et al., 2002), A22 caused a dose-dependent alteration of Caulobacter morphology, transforming normal, crescent-shaped cells into rounded, lemon-shaped cells. The progression of cell shape deformation by A22 treatment was qualitatively similar to that caused by mreB depletion, though the A22 effect was more rapid (FIGS. […]). […] For example, A22 could disrupt the localization of new cell wall synthesis but have no effect on the existing cell wall, such that without additional growth and wall synthesis A22's effects cannot be perceived. A dependence on cell growth could also explain why A22's effect on morphology takes several hours to manifest.
Microscopy and Timelapse Imaging. All experiments other than the A22 flow-cell analysis were performed by mounting the samples on 1% agarose pads as described, with the appropriate concentration of A22 added to the agarose. The rates of origin-distal locus segregation were determined by inducing PxyI:lacI:cfp expression with 0.03% xylose for 75 min, isolating swarmer cells, and growing the swarmer cells in M2G liquid medium for 50 min. After 50 min, 10 μg/ml of A22 was added to these liquid cultures, they were mounted onto 1% M2G agarose pads containing 10 μg/ml A22, and a phase and CFP fluorescence image was captured every 2 min for 60 min. The images were analyzed by previously described software to determine the average position and rate of movement of the observed foci.

[5] = E. coli MG1655 treated at 300 μg/ml (**), 30° C., 16 h
[6] = Example 2, methods as in Example 1
[7] = E. coli MG1655 treated at 3×MIC (*), 30° C., 16 h
[8] = Bacillus subtilis, 168, Example 2, methods as in Example 1, read-out: MIC B. subtilis
[9] = Bacillus subtilis, 168, Table 1, B. subtilis 168, read-out: MIC B. subtilis
[10] = MG1655, Example 2, methods as in Example 1, read-out: MIC E. coli
[11] = MG1655, Table 1, E. coli MG1655, read-out: MIC E. coli
[12] = NBRC14164, Example 2, methods as in Example 1, read-out: MIC P. putida
[13] = NBRC14164, Table 1, NBRC14164, read-out: MIC P. putida
[14] = NBRC15035, Example 2, methods as in Example 1, read-out: MIC S. aureus
[15] = NBRC15035, Table 1, NBRC15035, read-out: MIC S. aureus

| Compound | Shape (E. coli MG1655 [1]; [6]) | Growth inhibitory zone and blue zone in the anucleate cell blue assay (in words) [3] | Caulobacter growth rate or morphology (Caulobacter) | Effect on E. coli cell morphology (in words) (E. coli MG1655 [1]; 30° C.) | MIC (B. subtilis 168; [8]) | MIC (B. subtilis 168; [9]) | MIC (E. coli MG1655 [2]; [10]) | MIC (E. coli MG1655 [2]; [11]) | MIC (S. typhimurium NBRC13245; [6]) | MIC (S. typhimurium NBRC13245; Table 1, NBRC13245) | MIC (P. putida NBRC14164; [12]) | MIC (P. putida NBRC14164; [13]) | MIC [4, 14] | MIC [4, 15] | also measured |
| --- | --- | --- | --- | --- | --- | --- | --- | --- | --- | --- | --- | --- | --- | --- | --- |
| NC(=S)Nc1ccccc1 [Compound 10, N-phenylthiourea, reference compound] | Rod | neither a growth inhibition nor blue zone | – | – | – | – | – | – | – | – | – | – | – | – | Shape (E. coli MG1655 [1]; [5]): Rod**; MIC (B. subtilis 168; Bacillus subtilis, 168, read-out: MIC B. subtilis): > 100 µg/mL; MIC B. subtilis (B. subtilis 168; [6]): >100 µg/mL; MIC (E. coli MG1655 [2]; MG1655, read-out: MIC E. coli): > 100 µg/mL; MIC E. coli (E. coli MG1655 [2]; [6]): >100 µg/mL; MIC S. typhimurium (S. typhimurium NBRC13245; [6]): >100 µg/mL; MIC (S. typhimurium NBRC13245): > 100 µg/mL; MIC P. putida (P. putida NBRC14164; [6]): >100 µg/mL; MIC (P. putida NBRC14164; NBRC14164, read-out: MIC P. putida): > 100 µg/mL; MIC S. aureus [4, 6]: >100 µg/mL; MIC ([4]; NBRC15035, read-out: MIC S. aureus): > 100 µg/mL |
| C=C1[C@@H](C)[C@H]2[C@H](Cc3ccccc3)NC(=O)[C@]23[C@H](OC(C)=O)/C=C/[C@@](C)(O)C(=O)[C@@H](C)C/C=C/[C@H]3[C@@H]1O [cytochalasin D] | – | – | failed to perturb growth rate or morphology | – | – | – | – | – | – | – | – | – | – | – | – |
| N=C(N)SCc1ccccc1 [Compound 3, S-benzylisothiourea] | Sphere | blue zone just around the paper disk, but only a marginal growth inhibitory zone was detected | – | induced a spherical cell shape | > 100 µg/mL | > 100 µg/mL | 100 µg/mL (≈ 602 µM) | 100 µg/mL (≈ 602 µM) | > 100 µg/mL | > 100 µg/mL | > 100 µg/mL | > 100 µg/mL | > 100 µg/mL | > 100 µg/mL | Shape (E. coli MG1655 [1]; [7]): Sphere* |
| CCCCCCCSC(=N)N [Compound 5, S-heptylisothiourea] | Rod | a growth inhibitory zone as well as a blue zone | – | somewhat elongated cells, but not spherical cells | > 200 µg/mL | > 100 µg/mL | 200 µg/mL (≈ 1150 µM) | > 100 µg/mL | > 200 µg/mL | > 100 µg/mL | 200 µg/mL (≈ 1150 µM) | > 100 µg/mL | > 200 µg/mL | > 100 µg/mL | Shape (E. coli MG1655 [1]; [5]): Rod** |
| N=C(N)SCc1ccc(Cl)cc1 [Compound 2, S-(4-chlorobenzyl)isothiourea] | Sphere | deep blue zone around a growth inhibitory zone almost comparable to those of 1 | – | induced a spherical cell shape | > 100 µg/mL | > 100 µg/mL | 3.13 µg/mL (≈ 15.6 µM) | 3.13 µg/mL (≈ 15.6 µM) | 3.13 µg/mL (≈ 15.6 µM) | 3.13 µg/mL (≈ 15.6 µM) | > 100 µg/mL | > 100 µg/mL | > 100 µg/mL | > 100 µg/mL | Shape (E. coli MG1655 [1]; [7]): Sphere* |
| C/C1=C\[C@H](C)C[C@H](C)OC(=O)C[C@H](c2ccc(O)cc2)NC(=O)[C@@H](Cc2c(Br)[nH]c3ccccc23)N(C)C(=O)[C@H](C)NC(=O)[C@@H](C)C1 [jasplakinolide] | – | – | failed to perturb growth rate or morphology | – | – | – | – | – | – | – | – | – | – | – | – |
| C[C@@H]1NC(=O)[C@H](C[C@@](C)(O)CO)NC(=O)[C@@H]2Cc3c([nH]c4ccccc34)SC[C@H](NC(=O)[C@@H]([C@H](C)O)NC1=O)C(=O)N1C[C@@H](O)C[C@H]1C(=O)N[C@@H](C)C(=O)N2 [phalloidin] (cyclo(A[dT]C[cisHyp]A[Trp(2-yl)][Leu(4R-OH,5-OH)]); thioether 3-6) | – | – | failed to perturb growth rate or morphology | – | – | – | – | – | – | – | – | – | – | – | – |
